# From patent publication US20050272738A1, “Combined treatment with oxaliplatin and an epidermal growth factor receptor kinase inhibitor” (priority 2004, published 2005)
# Values joined by “and” are separate entries in the source; they are usually repeats but may differ in a detail not shown here. Equal values may be shown once. Read-outs that look alike come from different tables or passages of the source.
# Assays:
# [1] = test system: colorectal cancer; details: cited from earlier work
# [2] = test system: LoVo human colon xenograft; experiment: Anti-tumor efficacy in LoVo human colorectal xenograft in nude mice (experiments 525 and 540); format: in vivo, female athymic nu/nu mice
# Excerpt: The goal of this study is to assess the anti-tumor efficacy of the small molecule epidermal growth factor receptor inhibitor (EGFRi) Tarceva™ in combination with oxalipaltin on LoVo colorectal human xenograft, grown in female athymic nu/nu mice. Oxaliplatin is an agent that is currently used clinically in the treatment of colorectal cancer alone and in combination with other chemotherapeutic agents and/or radiation, depending on the stage of disease. In this study, the drugs were combined at their respective maximum tolerated dose (MTD) and also combined together at sub-optimal doses. All doses included in the combination groups were also included in the study as monotherapy arms. The attempt was to achieve maximum efficacy/regression without increased toxicity.
# (§1) The health of all animals was determined daily by gross observation of experimental animals and by the analyses of blood samples of sentinel animals that were housed on the shared shelf racks. All animals were allowed to acclimate and recover from any shipping related stress for one week prior to experimental manipulation. […] Cages, bedding and water bottles were autoclaved before use and were changed weekly. […] All in vivo experiments were performed in accordance with protocols approved by the Roche Animal Care and Use Committee (RACUC). The Roche animal care facility is fully accredited by the American Association for the Accreditation of Lab Animal Care (AAALAC).
# LoVo cells were grown in F-12K+20% FBS (not heat inactivated) and harvested. 5×10^6 cells/0.2 ml/mouse in PBS (Phosphate Buffered Saline) were implanted subcutaneously in the right flank on Aug.
# Formulated compound was made up in one batch for the entire 3 week study.
# Oxaliplatin was provided in clinical form. […] An aliquot of the stock vial solutions was taken for each dose group representing the drug needed for that group for the entire study duration and diluted out further with sterile saline, to provide a solution that renders a 0.2 ml dosing volume for each individual animal.
# For study 540, animals were randomized according to tumor volume on day 17 post tumor implantation so that all groups had similar starting mean tumor volumes of 100-150 mm^3.
# For efficacy study 540, treatment began on Sep. […] Tarceva™ was administered using a 1 cc syringe and 18-gauge gavage needles (0.2 ml/animal). Oxaliplatin was administered ip using a 1-cc syringe and 26-gauge needle (0.2 ml/animal). […] Treatment ended on Sep. […] No end of study drug exposure analysis was performed on this study.
# (§2) Tumor measurements and mouse weights were taken two-three times per week for LoVo. All animals were individually followed throughout the experiment.
# Efficacy data was graphically represented as the mean tumor volume+standard error of the mean (SEM).
# Tumor volume (in cubic millimeters) was calculated using the ellipsoid formula: (D×(d2))/2 • where ‘D’ represents the large diameter of the tumor, and ‘d’ represents the small diameter.
# In some cases, tumor regression and/or percent change in tumor volume was calculated using the formula: ((T−T0)/T0)×100 • where ‘T’ represents mean tumor volume of the treated group at a particular day and ‘T0’ represents mean tumor volume of the same treated group at initiation of treatment.
# Statistical analysis was determined by the rank sum test and One Way Anova and a post-hoc Bonferroni t-test (SigmaStat, version 2.0, Jandel Scientific, San Francisco, Calif.).
# [3] = test system: HCT116 tumor model; details: HCT116 model (data not shown)
# [4] = Toxicity in LoVo efficacy study 540 (body weight, deaths, clinical signs); format: in vivo, female nude mice; details: Tarceva 100 mg/kg (Group 2)
# Experimental: as §1
# For efficacy study 540, treatment began on Sep. […] Tarceva™ was administered using a 1 cc syringe and 18-gauge gavage needles (0.2 ml/animal). Oxaliplatin was administered ip using a 1-cc syringe and 26-gauge needle (0.2 ml/animal). All groups were treated q7d for 3 weeks (total 3 injections). Treatment ended on Sep. […] No end of study drug exposure analysis was performed on this study.
# as §2
# [5] = Maximum tolerated dose / tolerability of Tarceva in nude mice (MTD study and previous efficacy studies); format: in vivo, naïve female nude mice
# Experimental: Preliminary studies were performed in naïve female nude mice to determine the maximum tolerated dose (MTD) of Tarceva™. The MTD was defined as a dose that renders <20% body weight loss and no death in a 14 day study. […] Based on literature, a dosage for oxaliplatin of 10 mg/kg, once a week intraperitoneal was adopted in the study (Cividalli A, et al. (2002) Int. J. Radiat. Oncol. Biol. Phys. 52(4):1092-1098).
# [6] = oxaliplatin 5 mg/kg q7d ip, LoVo, study 540
# [7] = oxaliplatin 10 mg/kg q7d ip, LoVo, study 540
# [8] = Tarceva 100 mg/kg qd, LoVo, study 540
structure (smiles),measurement,setting,value
O=c1[nH]cc(F)c(=O)[nH]1 [5-fluorouracil],response rates,"[1]; single-agent treatment, advanced colorectal cancer",about 10%
O=C(O)C(=O)O.[NH-][C@@H]1CCCC[C@H]1[NH-].[Pt+2] [Oxaliplatin],response rates,"[1]; combined with 5-FU and leucovorin, first-line treatment for colorectal cancer",25-40%
same,% T/C,[2]; [6],67%
same,tumor growth inhibition (TGI),[2]; [6],33%
same,% T/C,[2]; [7],61%
same,tumor growth inhibition (TGI),[2]; [7],39%
same,tumor growth inhibition (TGI),[3]; oxaliplatin 5 mg/kg,21%
same,tumor growth inhibition (TGI),[3]; oxaliplatin 10 mg/kg,26%
"C#Cc1cccc(Nc2ncnc3cc(OCCOC)c(OCCOC)cc23)c1 [Tarceva™, [6,7-bis(2-methoxyethoxy)-4-quinazolin-4-yl]-(3-ethynylphenyl) amine]",tumor growth inhibition,"[2]; Tarceva 25 mg/kg qd, LoVo, across experiments",53-79%
same,% T/C,"[2]; Tarceva 25 mg/kg qd, LoVo, study 540",47%
same,tumor growth inhibition,"[2]; Tarceva 25 mg/kg qd, LoVo, study 540, day 39 post tumor implant",53%
same,% T/C,[2]; [8],2%
same,number of partial regressions,[2]; [8],four
same,"partial regressions (percent, in brackets)",[2]; [8],16% and 7%
same,tumor growth inhibition (TGI),"[2]; Tarceva 100 mg/kg qd, LoVo, study 540, day 39 post tumor implant",98%
same,tumors partially regressed,"[2]; Tarceva 100 mg/kg, LoVo, experiments 525 and 540",40-60%
same,tumor growth inhibition (TGI),"[2]; erlotinib 25 mg/kg monotherapy, LoVo (summary value)",79%
same,mice showing partial regressions (PR),"[2]; erlotinib 100 mg/kg monotherapy, LoVo",6/10
same,tumor growth inhibition (TGI),"[2]; erlotinib 100 mg/kg monotherapy, LoVo, experiment 525",> 100%
same,clinical signs,[4],classic reddening of the skin
same,maximum tolerated dose (MTD),"[5]; CMC/Tween formulation, 14 day study, MTD = <20% body weight loss and no death",100 mg/kg qd
same,toxicity at 200 mg/kg qd,"[5]; CMC/Tween formulation, MTD study",showing toxicity
same,tolerability at 150 mg/kg once a day,"[5]; CMC/Tween, 3 weeks, previous efficacy studies",tolerated well
